Source: patent US20070218475A1, “Efficient drug screening for protein targets” (priority 2005, published 2007)

How the values were obtained:
[1] = target: T1, SmoΔCT (Mus musculus, UniProt P56726); assay: Fluorescence (BODIPY-cyclopamine) binding assay, Cos-1 cells expressing SmoΔCT; conditions: Cos-1 cells, flow cytometry
T1 construct: expressed in transfected cells; host or cells: Cos-1
T1 sequence (P56726 33-555 limits assumed): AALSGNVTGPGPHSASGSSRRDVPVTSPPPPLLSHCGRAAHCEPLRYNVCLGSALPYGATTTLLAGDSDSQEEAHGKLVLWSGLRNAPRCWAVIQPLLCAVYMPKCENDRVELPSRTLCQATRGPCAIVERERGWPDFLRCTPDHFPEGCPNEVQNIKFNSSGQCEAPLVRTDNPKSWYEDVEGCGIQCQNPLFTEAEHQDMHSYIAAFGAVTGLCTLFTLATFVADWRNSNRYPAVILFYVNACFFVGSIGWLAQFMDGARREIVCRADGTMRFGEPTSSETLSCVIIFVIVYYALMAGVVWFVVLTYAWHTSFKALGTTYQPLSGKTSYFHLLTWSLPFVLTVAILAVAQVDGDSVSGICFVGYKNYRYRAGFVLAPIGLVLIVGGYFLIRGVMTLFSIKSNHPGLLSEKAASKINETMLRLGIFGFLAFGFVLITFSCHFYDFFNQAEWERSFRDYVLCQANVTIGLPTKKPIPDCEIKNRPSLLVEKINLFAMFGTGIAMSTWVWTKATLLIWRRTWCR
Source text: (§1) Preparation of Smo fusion proteins and deletion mutants: Both Smo-Myc3 and SmoA1-Myc3 are C-terminally fused to three consecutive Myc epitopes. […] Smo-GFP is comprised of green fluorescent protein fused to the C-terminus of Smo, and the fluorescent proteins in SmoA1-YFP, and SmoA1-GFP are similarly fused to the C-terminus of SmoA1. All constructs were generated by PCR and verified by DNA sequencing.
(§2) For flow cytometry experiments, the cells were then trypsinized, collected by centrifugation, resuspended in phenol red-free DMEM containing 0.5% bovine calf serum, and analyzed for green fluorescence (FACScan, Beckton Dickinson). […] Curve fitting analysis was performed with Kaleidograph (Synergy Software).

[2] = target: T2, SmoΔCRD (Mus musculus, UniProt P56726, DEL68-182); assay: Fluorescence (BODIPY-cyclopamine) binding assay, Cos-1 cells expressing SmoΔCRD; conditions: Cos-1 cells, flow cytometry
T2 construct: expressed in transfected cells; host or cells: Cos-1
T2 sequence (P56726 with tags, fused parts or gaps DEL68-182): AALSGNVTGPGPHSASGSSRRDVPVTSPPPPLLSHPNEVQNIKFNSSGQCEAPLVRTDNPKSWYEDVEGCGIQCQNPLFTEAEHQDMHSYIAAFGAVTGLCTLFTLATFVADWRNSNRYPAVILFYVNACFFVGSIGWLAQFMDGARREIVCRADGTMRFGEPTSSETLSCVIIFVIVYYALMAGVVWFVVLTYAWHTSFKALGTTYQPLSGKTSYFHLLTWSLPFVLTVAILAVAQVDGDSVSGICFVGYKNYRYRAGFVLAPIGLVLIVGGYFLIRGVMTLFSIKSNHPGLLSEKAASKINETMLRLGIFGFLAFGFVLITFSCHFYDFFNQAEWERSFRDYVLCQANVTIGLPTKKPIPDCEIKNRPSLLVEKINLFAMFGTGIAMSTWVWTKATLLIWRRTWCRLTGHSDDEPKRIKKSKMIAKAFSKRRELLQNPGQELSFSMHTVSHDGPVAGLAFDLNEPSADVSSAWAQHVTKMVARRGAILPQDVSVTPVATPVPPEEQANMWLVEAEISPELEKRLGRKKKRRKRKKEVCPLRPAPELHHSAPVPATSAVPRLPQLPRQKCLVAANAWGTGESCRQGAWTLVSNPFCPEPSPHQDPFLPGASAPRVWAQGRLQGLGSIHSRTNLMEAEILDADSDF
Source text: as §1, §2

[3] = target: T3, mouse Frizzled7 protein (Mus musculus, UniProt Q61090); assay: Fluorescence (BODIPY-cyclopamine) binding assay, Cos-1 cells expressing Frizzled7; conditions: flow cytometry
T3 construct: expressed in transfected cells; host or cells: Cos-1
Procedure: Fluorescence binding assay: Cos-1 cells were transfected in 6-well plates with the described expression vectors (1 μg/well), and after two days, incubated in DMEM containing 10% fetal bovine serum, 5 nM BODIPY-cyclopamine, and various concentrations of the indicated competitors for 4-6 h at 37° C. For flow cytometry experiments, the cells were then trypsinized, collected by centrifugation, resuspended in phenol red-free DMEM containing 0.5% bovine calf serum, and analyzed for green fluorescence (FACScan, Beckton Dickinson). A fluorescence intensity range that excludes non-transfected cells was then selected for quantification of specific BODIPY-cyclopamine binding (see brackets in FIGS. 2C, 2D, and 3A). Curve fitting analysis was performed with Kaleidograph (Synergy Software).

CC1=C2CC3C(CC=C4C[C@@H](O)CCC43C)C2CCC12O[C@@H]1CC(C)CN(CCNC(=O)CCCCCNC(=O)CCC3=[N+]4C(=Cc5c(C)cc(C)n5[B-]4(F)F)C=C3)C1C2C (stereo partly drawn) [BODIPY-cyclopamine]
binding to cells expressing SmoΔCT [1]: can bind | binding to cells expressing SmoΔCRD [2]: can bind | binding to cells expressing mouse Frizzled7 [3]: did not bind
